According to PMC6221475 (Bioorganic & medicinal chemistry letters, 2018):

Columns and labels:
σ1 receptors = experiment: σ1 receptor in vitro binding assay with [3H]pentazocine
VAChT [1] = molecular target: T1, VAChT (Homo sapiens, UniProt Q16572); experiment: VAChT competitive binding assay with tritiated vesamicol; details: read-out: Ki-VAChT; tritiated vesamicol as competitive radioligand
T1 sequence (Q16572 1-532): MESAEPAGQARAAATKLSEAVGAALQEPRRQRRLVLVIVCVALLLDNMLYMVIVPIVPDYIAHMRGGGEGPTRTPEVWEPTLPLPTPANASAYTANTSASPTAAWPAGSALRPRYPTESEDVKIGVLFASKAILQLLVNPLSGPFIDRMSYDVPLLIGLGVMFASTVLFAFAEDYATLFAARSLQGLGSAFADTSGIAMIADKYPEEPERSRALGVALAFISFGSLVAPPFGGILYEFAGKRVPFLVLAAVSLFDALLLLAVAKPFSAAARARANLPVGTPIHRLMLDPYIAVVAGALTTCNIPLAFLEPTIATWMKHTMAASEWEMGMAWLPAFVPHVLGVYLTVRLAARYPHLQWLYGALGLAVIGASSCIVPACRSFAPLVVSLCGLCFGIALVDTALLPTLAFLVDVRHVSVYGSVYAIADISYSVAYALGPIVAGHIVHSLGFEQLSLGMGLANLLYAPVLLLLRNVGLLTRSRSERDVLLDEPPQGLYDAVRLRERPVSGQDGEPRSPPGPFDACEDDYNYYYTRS

σ2 receptors = experiment: σ2 receptor in vitro binding assay with [3H]DTG
VAChT [2] = details: cited from earlier work
VAChT [3] = details: cited from earlier work; remark: listed apart in the source

O=C(c1ccc(F)cc1)C1CCN(C2Cc3c(O)cccc3CC2O)CC1 (single isomer, unassigned; (-)) [(−)-1, (−)-(1-(3,8-Dihydroxy-1,2,3,4-tetrahydronaphthalen-2-yl)piperidin-4-yl)(4-fluorophenyl)methanone]
Ki (σ1 receptors; read-out: Ki-σ1, [3H]pentazocine as radioligand): 2010 ± 450 nM
VAChT/σ1 (σ1 receptors; selectivity ratio for VAChT over σ1): 435
Ki (VAChT [1]): 4.62 ± 0.22 nM
Ki (σ2 receptors; read-out: Ki-σ2, [3H]DTG as radioligand): > 10000 nM
VAChT/σ2 (σ2 receptors; selectivity ratio for VAChT over σ2): 2165

OC1Cc2cccc(OCC[18F])c2CC1N1CCC(c2ccccc2)CC1 (single isomer, unassigned; (-)) [[^18F]FEOBV, (−)-5-[^18F]fluoroethoxybenzovesamicol]
time required to equilibrate in the striatum (VAChT [2]; human, PET, ref [11], [16], [17]): over 6 h

O=C(c1ccc(F)cc1)C1CCN(C2Cc3c(cccc3OCC[18F])CC2O)CC1 (single isomer, unassigned; (-)) [[^18F]VAT, (−)-(1-(8-(2-[^18F]fluoroethoxy)-3-hydroxy-1,2,3,4tetrahydro-naphthalen-2-yl)-piperidin-4-yl)(4-fluorophenyl)-methanone]
standardized uptake value (SUV) at peak uptake (VAChT [3]; NHP brain, at 15 min, ref [23]): 5.1
uptake ratio of target (striatum) to non-target (cerebellum) (VAChT [3]; NHP brain, ref [23]): 3.0
time of peak uptake in the brain (VAChT [3]; in vivo): 15 min

OC1Cc2cccc([123I])c2CC1N1CCC(c2ccccc2)CC1 (single isomer, unassigned; (-)) [[^123I]IBVM, (−)-5-[^123I]iodo-benzovesamicol]
time of peak uptake in the target regions post-injection (VAChT [2]; human subjects, SPECT, ref [10], [13]–[15]): at least 6 h
